For orientation: pKi means the negative decadic logarithm of the Ki, by convention in mol/L.

Our source for the Ki values is ChEMBL document CHEMBL1128470, “Novel angiotensin II receptor antagonists. Design, synthesis, and in vitro evaluation of dibenzo[a,d]cycloheptene and dibenzo[b,f]oxepin derivatives. Searching for bioisosteres of biphenylyltetrazole using a three-dimensional search technique” (J Med Chem, 1995).

pKi: −log10 of the molar value.

The test addresses T1, Type-1 angiotensin II receptor (Homo sapiens, UniProt P30556).
T1 sequence (P30556 whole entry): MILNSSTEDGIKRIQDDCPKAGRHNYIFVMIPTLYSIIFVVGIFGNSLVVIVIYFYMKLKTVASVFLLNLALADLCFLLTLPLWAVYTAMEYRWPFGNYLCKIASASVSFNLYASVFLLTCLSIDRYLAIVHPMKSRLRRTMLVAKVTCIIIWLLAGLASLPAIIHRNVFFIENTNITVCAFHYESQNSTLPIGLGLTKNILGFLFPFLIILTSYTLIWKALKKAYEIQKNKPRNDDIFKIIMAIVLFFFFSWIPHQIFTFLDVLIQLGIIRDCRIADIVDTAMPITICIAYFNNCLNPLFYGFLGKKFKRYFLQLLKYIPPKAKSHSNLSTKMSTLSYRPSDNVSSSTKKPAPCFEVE
The test is described as follows: Ability to displace [125I]AII binding to COS cells transfected with a cDNA encoding human Angiotensin II receptor, type 1. The test is classed as cell-based.

Turning to `CCCCc1nc(Cl)c(C=O)n1Cc1ccc2c(-c3nnn[nH]3)cc3ccccc3c(=O)c2c1`, the pKi is 7.92.

With `CCCCc1nc(Cl)c(C(=O)O)n1Cc1ccc2c(-c3nnn[nH]3)cc3ccccc3c(=O)c2c1`, the negative-log Ki (pKi) was 8.68.

`Cc1cc(OCc2ccc3c(-c4nnn[nH]4)cc4ccccc4c(=O)c3c2)c2c(n1)CCCC2` showed a pKi of 8.37.

`CCc1cc(OCc2ccc3c(-c4nnn[nH]4)cc4ccccc4c(=O)c3c2)c2c(n1)CCCC2` had a pKi of 8.89.

`CCOc1nc2cccc(C(=O)O)c2n1Cc1ccc2c(-c3nnn[nH]3)cc3ccccc3c(=O)c2c1` showed a pKi of 8.57.

In turn, `CCCCC(=O)N(Cc1ccc2c(c1)Oc1ccccc1C=C2c1nnn[nH]1)[C@H](C(=O)O)C(C)C` showed a pKi of 8.02.

`CCOC(=O)c1c(OCc2ccc3c(-c4nnn[nH]4)cc4ccccc4c(=O)c3c2)cc(C)nc1C`: the pKi is 8.37.

For the compound `CCc1cc(OCc2ccc3c(-c4nnn[nH]4)cc4ccccc4c(=O)c3c2)c2ccccc2n1`, the pKi was 9.19. Against the preceding compound, the pKi is 0.82 log units higher.

Take `CCc1cc(OCc2ccc3c(-c4nnn[nH]4)cc4ccccc4c(=O)c3c2)c2cc(C(=O)O)ccc2n1`: the pKi is 8.57. Compared with the last compound, the pKi is 0.62 log units lower.

Turning to `CCCc1nc2c(C)cc(C)nc2n1Cc1ccc2c(c1)Oc1ccccc1C=C2c1nnn[nH]1`, the pKi is 9.15.

`CCc1nc2c(C)cc(C)nc2n1Cc1ccc2c(-c3nnn[nH]3)cc3ccccc3c(=O)c2c1`: the pKi is 9.18. The pKi values of the last two compounds are within 0.2 log units of each other.

`CCc1cc(NCc2ccc3c(-c4nnn[nH]4)cc4ccccc4c(=O)c3c2)n2nccc2n1` had a pKi of 8.96.

Consider `CCCCC(=O)N(Cc1ccc2c(-c3nnn[nH]3)cc3ccccc3c(=O)c2c1)[C@H](C(=O)O)C(C)C`, for which the pKi is 8.06.

On to `CCOc1nc2cccc(C(=O)O)c2n1Cc1ccc2c(c1)Oc1ccccc1C=C2c1nnn[nH]1`, for which the pKi is 8.41. This pKi is 0.35 log units higher than that of the compound before.

For the compound `CCCc1nc2c(C)cc(C)nc2n1Cc1ccc2c(-c3nnn[nH]3)cc3ccccc3c(=O)c2c1`, the pKi was 9.54. This pKi lies 1.13 log units higher than the previous one.

As to `CCCc1nc2c(C)cc(C)nc2n1Cc1ccc2c(c1)Cc1ccccc1C=C2c1nnn[nH]1`, the pKi was 9.31. This pKi lies 0.23 log units lower than the previous one.

Regarding `Cc1cc(C)c2nc(C3CC3)n(Cc3ccc4c(-c5nnn[nH]5)cc5ccccc5c(=O)c4c3)c2n1`, the pKi was 9.35.

Consider `CCOC(=O)c1c(NCc2ccc3c(-c4nnn[nH]4)cc4ccccc4c(=O)c3c2)cc(C)nc1C`, for which the pKi was 8.54.

Take `CCc1cc(OCc2ccc3c(-c4nnn[nH]4)cc4ccccc4c(=O)c3c2)c2nc(OC)ccc2n1`: the pKi is 9.32.
